# Read-outs that look alike come from different tables or passages of the source.
# Tests used:
# THP-1 cells = assay: Measurement of IL-1β production, hTRF protocol (second alternative procedure), THP-1 cells; assay type: cell-based, human; conditions: Homo sapiens
# How it was run: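 THP-1 cells differentiated overnight with 50 ng/ml PMA, then plated at 50,000 cells/well in RPMI with 2% FBS onto serial compound dilutions (top final concentration 10 μM) for 2 hours at 37° C. Supernatant IL-1β measured by hTRF (antibodies at 1:40, overnight at 4° C), read at 665/615 nm against a standard curve.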
# TLR7 = biological target: T1, TLR7 (Homo sapiens, UniProt Q9NYK1); assay: In vitro human TLR7 binding reporter assay (HEK-Blue, NF-kB/AP1-inducible SEAP); assay type: cell-based; conditions: read-out: TLR7 Agonist EC50
# T1 construct: human HEK-Blue cells co-expressing a TLR7 or TLR8 gene
# T1 sequence (Q9NYK1 27-1049): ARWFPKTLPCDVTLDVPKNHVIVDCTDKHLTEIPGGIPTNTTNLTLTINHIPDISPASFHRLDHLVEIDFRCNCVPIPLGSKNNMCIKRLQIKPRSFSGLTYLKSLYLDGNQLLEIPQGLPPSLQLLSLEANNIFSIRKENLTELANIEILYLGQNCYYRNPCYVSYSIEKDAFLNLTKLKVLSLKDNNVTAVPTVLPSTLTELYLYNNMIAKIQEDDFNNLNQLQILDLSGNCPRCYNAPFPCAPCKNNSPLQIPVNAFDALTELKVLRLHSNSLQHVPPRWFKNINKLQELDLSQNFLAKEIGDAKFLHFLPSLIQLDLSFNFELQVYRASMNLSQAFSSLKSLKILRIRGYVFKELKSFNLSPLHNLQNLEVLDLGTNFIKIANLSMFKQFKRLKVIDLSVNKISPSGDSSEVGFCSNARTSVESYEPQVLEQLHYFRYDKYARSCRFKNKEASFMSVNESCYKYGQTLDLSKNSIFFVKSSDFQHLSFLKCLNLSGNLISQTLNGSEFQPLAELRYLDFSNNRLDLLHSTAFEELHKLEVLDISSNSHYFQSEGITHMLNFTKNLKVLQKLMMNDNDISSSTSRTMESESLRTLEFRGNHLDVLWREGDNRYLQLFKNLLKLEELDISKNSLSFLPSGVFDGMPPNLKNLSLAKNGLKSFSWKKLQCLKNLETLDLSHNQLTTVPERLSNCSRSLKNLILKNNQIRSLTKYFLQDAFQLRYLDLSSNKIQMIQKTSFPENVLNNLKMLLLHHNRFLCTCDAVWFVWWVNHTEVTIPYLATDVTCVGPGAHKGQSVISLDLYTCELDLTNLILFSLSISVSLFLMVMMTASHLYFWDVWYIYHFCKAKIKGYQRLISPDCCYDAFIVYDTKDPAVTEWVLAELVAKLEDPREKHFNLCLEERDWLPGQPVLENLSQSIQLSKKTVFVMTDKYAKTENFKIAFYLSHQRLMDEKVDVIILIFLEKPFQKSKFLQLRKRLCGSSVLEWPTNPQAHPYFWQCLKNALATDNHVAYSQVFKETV
# How it was run: (§1)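 EC50s come from NF-kB/AP1-driven SEAP secretion in HEK-Blue cells expressing TLR7 or TLR8, measured with Quanti-Blue after an 18 h compound incubation. Maximal response is defined by a 50 μM reference standard.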
# TLR8 = biological target: T2, TLR8 (Homo sapiens, UniProt Q9NR97); assay: In vitro human TLR8 binding reporter assay (HEK-Blue, NF-kB/AP1-inducible SEAP); assay type: cell-based; conditions: read-out: TLR8 Agonist EC50
# T2 construct: human HEK-Blue cells co-expressing a TLR7 or TLR8 gene
# T2 sequence (Q9NR97 27-1041): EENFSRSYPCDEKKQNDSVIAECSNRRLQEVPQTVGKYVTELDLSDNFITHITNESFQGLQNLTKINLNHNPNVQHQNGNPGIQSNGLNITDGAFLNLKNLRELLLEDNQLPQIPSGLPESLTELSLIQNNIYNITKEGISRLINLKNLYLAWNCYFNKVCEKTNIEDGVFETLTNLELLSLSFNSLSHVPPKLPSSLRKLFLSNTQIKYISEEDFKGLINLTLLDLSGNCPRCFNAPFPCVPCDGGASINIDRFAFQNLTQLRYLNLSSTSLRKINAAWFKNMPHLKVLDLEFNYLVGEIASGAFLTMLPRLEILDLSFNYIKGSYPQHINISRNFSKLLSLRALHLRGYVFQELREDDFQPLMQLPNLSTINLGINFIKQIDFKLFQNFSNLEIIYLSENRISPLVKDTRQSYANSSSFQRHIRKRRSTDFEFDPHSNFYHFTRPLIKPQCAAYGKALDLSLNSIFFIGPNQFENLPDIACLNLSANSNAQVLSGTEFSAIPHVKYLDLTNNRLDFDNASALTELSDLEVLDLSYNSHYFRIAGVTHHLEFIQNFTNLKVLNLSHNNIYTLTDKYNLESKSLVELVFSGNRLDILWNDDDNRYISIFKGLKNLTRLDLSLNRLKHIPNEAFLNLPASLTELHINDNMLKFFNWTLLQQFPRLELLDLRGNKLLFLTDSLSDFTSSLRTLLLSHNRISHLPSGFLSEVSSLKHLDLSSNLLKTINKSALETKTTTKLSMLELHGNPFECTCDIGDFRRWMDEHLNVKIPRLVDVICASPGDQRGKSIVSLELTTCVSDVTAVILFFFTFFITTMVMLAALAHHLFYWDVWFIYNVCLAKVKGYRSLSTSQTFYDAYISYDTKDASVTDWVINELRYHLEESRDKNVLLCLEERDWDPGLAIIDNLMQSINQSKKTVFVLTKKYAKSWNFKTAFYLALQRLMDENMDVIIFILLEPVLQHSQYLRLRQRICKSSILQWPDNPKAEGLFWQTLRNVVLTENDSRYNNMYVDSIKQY
# How it was run: as §1
# [1] = THP-1, IL-1β production, human, read-out: NLRP3 hILIB EC50
# [2] = THP-1, IL-1β production, human cells, read-out: NLRP3 hILIB EC50
EC50 (THP-1 cells; [1]),EC50 (TLR7; activity range class),EC50 (TLR8; activity range class),EC50 (THP-1 cells; [2]),EC50 (TLR7; activity range),EC50 (TLR8; activity range),SMILES,"EC50 (THP-1 cells; THP-1, read-out: NLRP3 hILIB EC50)"
0.71 µM,> 100 µM,> 100 µM,–,–,–,Nc1nc2cc(-c3cc[nH]n3)ccc2c2c1cnn2C1CCOCC1 [Example 311],–
–,–,–,2.66 µM,> 100 µM,> 100 µM,C[C@H](O)Cn1ncc2c(N)nc3cc(-c4cc[nH]n4)ccc3c21 [Example 401],–
–,–,–,3.58 µM,> 100 µM,> 100 µM,COCCNC(=O)Cn1cc2c(n1)c(N)nc1cc(-c3cc[nH]n3)ccc12 [Example 536],–
3.92 µM,> 100 µM,> 100 µM,–,–,–,NCCCc1nc2c(N)nc3cc(-c4ccn[nH]4)ccc3c2s1 [Example 138],–
0.11 µM,> 100 µM,> 100 µM,–,–,–,CCn1cc2c(N)nc3cc(-c4cc[nH]n4)ccc3c2n1 [Example 334],–
–,–,–,0.32 µM,> 100 µM,> 100 µM,CN(C)Cc1cc2c(N)nc3cc(-c4ccn[nH]4)ccc3c2[nH]1 [Example 439],–
2.2 µM,20 to 100 µM,> 100 µM,–,–,–,Nc1nc2cc(-n3cccn3)ccc2c2cn(CC3CCCO3)nc12 (stereo not drawn) [Example 17],–
0.43 µM,> 100 µM,> 100 µM,–,–,–,CC(Cn1cc2c(N)nc3cc(-c4ccn[nH]4)ccc3c2n1)NC(=O)c1ccc(F)cn1 (stereo not drawn) [Example 294],–
–,–,–,3.17 µM,> 100 µM,> 100 µM,COCCNC(=O)C(C)n1cc2c(N)nc3cc(-c4ccn[nH]4)ccc3c2n1 (stereo not drawn) [Example 581],–
0.41 µM,> 100 µM,> 100 µM,–,–,–,"Nc1nc2cc(-c3ccn[nH]3)ccc2c2cn(CCNC(=O)c3ccccn3)cc12 [Example 286, N-[2-[4-amino-7-(1H-pyrazol-5-yl)-2H-pyrrolo[3,4-c]quinolin-2-yl]ethyl]pyridine-2-carboxamide]",–
–,–,–,0.26 µM,> 100 µM,> 100 µM,Nc1nc2cc(-c3cc[nH]n3)ccc2c2[nH]c(CN3CC[C@@H](O)C3)cc12 [Example 480],–
0.88 µM,> 100 µM,> 100 µM,–,–,–,COC[C@H](O)Cn1cc2c(N)nc3cc(-c4cc[nH]n4)ccc3c2n1 [Example 372],–
–,–,–,0.56 µM,> 100 µM,> 100 µM,NCc1cc2c(N)nc3cc(-n4cccn4)ccc3c2[nH]1 [Example 437],–
18.8 µM,> 100 µM,> 100 µM,–,–,–,COc1ccc(C(=O)NCCn2cc3c(n2)c(N)nc2cc(-c4cc[nH]n4)ccc23)nn1 [Example 51],–
0.09 µM,> 100 µM,> 100 µM,–,–,–,Nc1nc2cc(-c3cc[nH]n3)ccc2c2nn(C3CCOC3)cc12 (racemic) [Example 237],–
0.65 µM,> 100 µM,> 100 µM,–,–,–,CC(C)C(O)Cn1cc2c(N)nc3cc(-c4cc[nH]n4)ccc3c2n1 (stereo not drawn) [Example 374],–
–,–,–,0.46 µM,> 100 µM,> 100 µM,Nc1nc2cc(-c3cc[nH]n3)ccc2c2[nH]c(CN[C@H]3CCOC3)cc12 [Example 421],–
0.26 µM,> 100 µM,> 100 µM,–,–,–,CC(C)(CO)Cn1cc2c(N)nc3cc(-c4cc[nH]n4)ccc3c2n1 [Example 313],–
0.45 µM,> 100 µM,> 100 µM,–,–,–,CCOCCn1ncc2c(N)nc3cc(-c4cc[nH]n4)ccc3c21 [Example 223],–
–,–,–,5.82 µM,> 100 µM,> 100 µM,Nc1nc2cc(-c3cc[nH]n3)ccc2c2nn(CCC(=O)N3CC(O)C3)cc12 [Example 512],–
–,–,–,6.95 µM,> 100 µM,> 100 µM,CC(C)(C(=O)N1CCCC1)n1cc2c(N)nc3cc(-c4cc[nH]n4)ccc3c2n1 [Example 509],–

SMILES,EC50 (THP-1 cells; [1]),EC50 (TLR7; activity range class),EC50 (TLR8; activity range class),EC50 (THP-1 cells; [2]),EC50 (TLR7; activity range),EC50 (TLR8; activity range),"EC50 (THP-1 cells; THP-1, read-out: NLRP3 hILIB EC50)"
"CCN(CCn1cc2c(n1)c(N)nc1cc(-c3cc[nH]n3)ccc12)C(C)=O [Example 29, N-[2-[4-amino-7-(1H-pyrazol-3-yl)-2H-pyrazolo[3,4-c]quinolin-2-yl]ethyl]-N-ethylacetamide]",–,> 100 µM,> 100 µM,–,–,–,6.01 µM
